Measured values: publication PMC5522996, “Big conductance calcium‐activated potassium channel openers control spasticity without sedation” (British Journal of Pharmacology, 2017)

Legend:
[1] = biological target: T1, β1 (Homo sapiens, UniProt P08588); experiment: Receptor binding profile of VSN16R; conditions: 10µM VSN16R
T1 construct: purchased Cerep; Chantest; DiscoveRx; Multispan; MDS Pharma Services

[2] = biological target: T2, monoglycerol lipase (Homo sapiens, UniProt Q99685); experiment: Receptor binding profile of VSN16R; conditions: 10µM VSN16R
T2 construct: purchased Cerep; Chantest; DiscoveRx; Multispan; MDS Pharma Services
T2 sequence (Q99685 whole entry): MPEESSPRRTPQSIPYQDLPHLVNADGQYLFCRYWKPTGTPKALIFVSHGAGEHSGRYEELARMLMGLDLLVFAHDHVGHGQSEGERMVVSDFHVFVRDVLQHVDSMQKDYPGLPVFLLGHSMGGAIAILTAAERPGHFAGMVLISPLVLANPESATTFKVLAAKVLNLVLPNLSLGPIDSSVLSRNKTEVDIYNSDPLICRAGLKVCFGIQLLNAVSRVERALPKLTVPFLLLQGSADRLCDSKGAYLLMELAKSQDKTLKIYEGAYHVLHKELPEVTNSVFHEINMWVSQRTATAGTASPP

[3] = biological target: T3, κ (Homo sapiens, UniProt P41145); experiment: Receptor binding profile of VSN16R; conditions: 10µM VSN16R
T3 construct: purchased Cerep; Chantest; DiscoveRx; Multispan; MDS Pharma Services
T3 sequence (P41145 whole entry): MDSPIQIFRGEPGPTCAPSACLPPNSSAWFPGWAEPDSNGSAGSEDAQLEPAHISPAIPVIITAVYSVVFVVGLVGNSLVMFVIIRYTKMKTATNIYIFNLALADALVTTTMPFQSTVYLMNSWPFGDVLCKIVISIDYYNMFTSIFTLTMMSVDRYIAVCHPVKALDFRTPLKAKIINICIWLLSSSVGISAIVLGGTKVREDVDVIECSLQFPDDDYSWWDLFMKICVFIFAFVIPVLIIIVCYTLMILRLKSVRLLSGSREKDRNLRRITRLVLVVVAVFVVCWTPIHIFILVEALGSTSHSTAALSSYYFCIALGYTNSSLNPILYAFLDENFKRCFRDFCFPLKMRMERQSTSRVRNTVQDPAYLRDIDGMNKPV

[4] = biological target: CYP450 2C19 (Homo sapiens, UniProt P33261)
CYP450 2C19, sequence (P33261 whole entry): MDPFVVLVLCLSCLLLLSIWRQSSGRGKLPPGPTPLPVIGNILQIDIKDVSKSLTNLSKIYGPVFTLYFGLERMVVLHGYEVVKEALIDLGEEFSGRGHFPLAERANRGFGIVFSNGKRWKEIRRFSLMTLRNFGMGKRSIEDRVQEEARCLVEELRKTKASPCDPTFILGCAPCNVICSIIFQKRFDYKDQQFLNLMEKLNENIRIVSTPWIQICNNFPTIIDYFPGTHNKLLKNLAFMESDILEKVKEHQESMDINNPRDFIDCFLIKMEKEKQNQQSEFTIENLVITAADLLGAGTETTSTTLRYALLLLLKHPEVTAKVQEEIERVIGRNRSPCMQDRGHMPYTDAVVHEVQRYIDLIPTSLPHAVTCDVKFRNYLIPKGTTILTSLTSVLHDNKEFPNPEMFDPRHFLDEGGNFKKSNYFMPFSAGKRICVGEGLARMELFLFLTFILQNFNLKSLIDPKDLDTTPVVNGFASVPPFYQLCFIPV
Description: IC50 Inhibition of substrate binding
Inhibition of binding of either 3-cyano-7-ethoxycoumarin, dibenzylfluorescein or 7-benzyoxy-4-
(trifluoromethyl) coumarin in human enzyme transfected BTI NN-5B1-4 cells or Sf9 insect cells or
inhibition of dextromethorphan substrate to CYP450 2D6 in liver microsomes.

[5] = Phase I pharmacokinetics in healthy humans; type: in vivo, human
Method: The stability of compounds when subjected to hepatic and plasma degradation was assessed in vitro by Inpharmatica, Cambridge, UK. Compounds (1 μM) were incubated with either pooled mouse liver microsomes (0.1 mg protein mL^−1) or pooled mouse plasma at 37°C for 0, 5, 10, 20 and 40 min before termination with acetonitrile containing warfarin as an analytical internal standard. Samples were centrifuged, and the resultant supernatant analysed for parent compound. The mass responses at baseline were taken as the 100% reference values against which the disappearance of the compound was measured. The natural log of the % remaining values was used to generate linear plots of disappearance of the compounds. Half‐life values were calculated from the slope of these plots. Hepatocyte metabolism was assessed by Cyprotex, Macclesfield, and 10 μM VSN16R was incubated with primary mouse, rat, monkey (Macaque) and human hepatocytes for 1 h, and the presence of metabolites was assessed using liquid […] mass spectroscopy. The stability of VSN16R was assessed in vivo by Inpharmatica, Cyprotex and Charles Rivers, Cambridge. Blood (plasma) samples were obtained prior to and 5 min to 24 h after drug administration of 2–5 mg·kg^−1 i.v. or 5 mg·kg^−1 p.o. VSN16R into outbred mice and rats (n = 3 per time point). In addition, plasma, brain and spinal cord samples were obtained from ABH with spastic EAE. Immediately after blood collection, the brain and spinal cord were removed and then stored at −20°C prior to assay. Tissue samples were weighed, homogenized and centrifuged, and the lysates generated. Brain lysates and plasma were assayed by LC–MS methods by Inpharmatica/Charles Rivers, Cambridge, UK. This was also performed using a Waters Xevo TQ or API4000, AB Sciex mass spectrometer using spiked samples as standards. PK Solutions Software (Summit Research Services, Montrose, CO, USA), AB Sciex Analyst software combined with Thermo Fisher Scientific Watson LIMS processing and reporting software or WinNonLin pharmacokinetic or PK solutions 2.0 software (Summit Research Services, Montrose CO, USA) were used to produce PK parameters. Data are expressed as mean ± SEM. The detection limit of VSN16R was 2 ng·mL^−1 in plasma and brain and 14 ng·mL^−1 in spinal cords.

[6] = test system: GABAB; experiment: Receptor binding profile of VSN16R; parameters: species or system human; conditions: 10µM VSN16R
[7] = biological target: T4, GPR55 (Homo sapiens, UniProt Q9Y2T6); experiment: Receptor binding profile of VSN16R
T4 construct: purchased Cerep; Chantest; DiscoveRx; Multispan; MDS Pharma Services
T4 sequence (Q9Y2T6 whole entry): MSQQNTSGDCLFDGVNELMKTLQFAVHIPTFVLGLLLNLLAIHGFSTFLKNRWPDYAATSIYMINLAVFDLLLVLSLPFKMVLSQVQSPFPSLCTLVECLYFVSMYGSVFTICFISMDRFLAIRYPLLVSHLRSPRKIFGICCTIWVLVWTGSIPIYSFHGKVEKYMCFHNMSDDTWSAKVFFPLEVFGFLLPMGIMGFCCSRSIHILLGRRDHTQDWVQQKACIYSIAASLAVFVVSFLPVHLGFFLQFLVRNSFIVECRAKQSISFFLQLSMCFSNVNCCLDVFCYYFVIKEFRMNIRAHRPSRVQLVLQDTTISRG

[8] = test system: Ca2+ channel (L verapamil site); experiment: Receptor binding profile of VSN16R; parameters: species or system human; conditions: 10µM VSN16R
[9] = biological target: BKCa channel (Homo sapiens, UniProt Q12791); experiment: Single‐channel inside‐out patch clamp, HCN‐2 neural cells; type: cell-based; conditions: inside‐out patches
BKCa channel, sequence (Q12791 whole entry): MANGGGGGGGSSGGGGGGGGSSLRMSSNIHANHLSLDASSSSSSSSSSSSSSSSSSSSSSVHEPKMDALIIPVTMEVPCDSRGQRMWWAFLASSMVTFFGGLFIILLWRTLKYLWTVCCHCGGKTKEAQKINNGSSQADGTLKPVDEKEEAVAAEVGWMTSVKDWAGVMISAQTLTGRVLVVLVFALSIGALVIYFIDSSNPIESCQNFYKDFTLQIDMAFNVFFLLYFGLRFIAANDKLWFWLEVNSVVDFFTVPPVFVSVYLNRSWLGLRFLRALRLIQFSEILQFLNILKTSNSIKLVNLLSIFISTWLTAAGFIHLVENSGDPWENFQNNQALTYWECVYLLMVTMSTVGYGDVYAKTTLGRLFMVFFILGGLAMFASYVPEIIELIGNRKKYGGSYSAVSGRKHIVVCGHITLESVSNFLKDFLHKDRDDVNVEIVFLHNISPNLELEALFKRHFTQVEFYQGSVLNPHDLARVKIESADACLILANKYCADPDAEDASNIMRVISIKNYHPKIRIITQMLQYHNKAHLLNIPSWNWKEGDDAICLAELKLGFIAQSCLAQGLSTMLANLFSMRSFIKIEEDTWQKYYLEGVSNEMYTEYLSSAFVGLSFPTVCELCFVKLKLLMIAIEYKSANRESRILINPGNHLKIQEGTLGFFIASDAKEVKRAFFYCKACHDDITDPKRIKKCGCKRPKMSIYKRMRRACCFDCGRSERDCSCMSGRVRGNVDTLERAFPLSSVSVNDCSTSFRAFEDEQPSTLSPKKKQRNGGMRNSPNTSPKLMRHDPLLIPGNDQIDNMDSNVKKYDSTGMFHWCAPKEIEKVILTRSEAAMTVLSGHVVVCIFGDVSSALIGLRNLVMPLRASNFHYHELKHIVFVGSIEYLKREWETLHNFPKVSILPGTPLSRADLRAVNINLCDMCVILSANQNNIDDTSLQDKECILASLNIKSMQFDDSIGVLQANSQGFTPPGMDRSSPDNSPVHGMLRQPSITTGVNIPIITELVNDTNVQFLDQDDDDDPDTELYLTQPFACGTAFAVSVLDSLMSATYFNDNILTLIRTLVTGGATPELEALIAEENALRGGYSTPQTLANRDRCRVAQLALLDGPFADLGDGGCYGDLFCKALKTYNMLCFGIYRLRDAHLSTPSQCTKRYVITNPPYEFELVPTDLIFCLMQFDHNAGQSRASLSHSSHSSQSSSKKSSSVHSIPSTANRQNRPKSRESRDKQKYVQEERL
Method: The human EA.hy926 endothelial cells (ATCC, Manassas, USA) were grown in DMEM containing 10% FCS and 1% HAT (5 mM hypoxanthine, 20 μM aminopterin and 0.8 mM thymidine) and were maintained in an incubator at 37°C in 5% CO2 atmosphere (Bondarenko et al., 2013). Human HNC‐2 neuronal cells were obtained from ATCC. For experiments, cells were plated on glass coverslips. Single‐channel recordings were obtained from excised inside‐out membrane patches in symmetrical solutions using the patch‐clamp technique. All patch‐clamp experiments were performed at room temperature with the use of a water hydraulic micromanipulator (WR‐6, Narishige, Japan). […] The pipettes were filled with 140 mM KCl, 10 mM HEPES, 1 mM MgCl2, 5 mM EGTA and […] CaCl2 buffered to pH 7.2 by adding KOH. Cells were super‐perfused with a bath solution containing 140 mM NaCl, 5 mM KCl, 1.2 mM MgCl2, 10 mM HEPES, 10 mM glucose and 2.4 mM CaCl2. […] Single‐channel activity was expressed as NPo, where N represents the number of functional ion channels in the membrane patch and Po represents the open channel probability determined from idealized traces (Bondarenko et al., 2011). […] Data were analysed by ANOVA, and statistical significance was evaluated using Scheffés post hoc test of the Prism 5 software for Windows (GraphPad Software).

[10] = test system: rat mesenteric artery; parameters: method as in Hoi et al., 2007; conditions: ref Hoi et al., 2007; read-out: EC50, vasorelaxation of rat mesenteric arteries; cited from earlier work
[11] = test system: rat mesenteric artery; experiment: Methoxamine‐evoked contraction of rat mesenteric artery; type: cell-based
Method: Vessels were equilibrated and set to a basal tension of 2 to 2.5 mN. The integrity of the endothelium was assessed by pre‐contracting the vessel with 10 μM methoxamine (an α1‐adrenoceptor agonist), followed by relaxation with 10 μM carbachol (a muscarinic acetylcholine receptor agonist); vessels showing relaxations of greater than 90% were designated as endothelium‐intact. When the endothelium was not required, it was removed by rubbing the intima with a human hair; carbachol‐induced relaxation of less than 10% indicated successful removal. After the test for endothelial integrity, vessels were left for 30 min and then pre‐contracted with 10 μM methoxamine. This was followed by construction of a cumulative concentration–relaxation curve to VSN16R (10 nM–1 μM). […] Most experiments were performed in matched vessels; effects of blockers or endothelial removal were compared with the control responses obtained in separate vessels of the same rats. All relaxant responses are expressed as percentage relaxation of the tone induced by methoxamine. Values are given as mean ± SEM. Statistical comparisons of concentration‐dependent responses were made by two‐way ANOVA using Prism 4 (GraphPad Software, Inc, San Diego, CA, USA).

[12] = biological target: T5, GPR12 (Homo sapiens, UniProt P47775); experiment: Receptor binding profile of VSN16R; conditions: 10µM VSN16R
T5 construct: purchased Cerep; Chantest; DiscoveRx; Multispan; MDS Pharma Services
T5 sequence (P47775 whole entry): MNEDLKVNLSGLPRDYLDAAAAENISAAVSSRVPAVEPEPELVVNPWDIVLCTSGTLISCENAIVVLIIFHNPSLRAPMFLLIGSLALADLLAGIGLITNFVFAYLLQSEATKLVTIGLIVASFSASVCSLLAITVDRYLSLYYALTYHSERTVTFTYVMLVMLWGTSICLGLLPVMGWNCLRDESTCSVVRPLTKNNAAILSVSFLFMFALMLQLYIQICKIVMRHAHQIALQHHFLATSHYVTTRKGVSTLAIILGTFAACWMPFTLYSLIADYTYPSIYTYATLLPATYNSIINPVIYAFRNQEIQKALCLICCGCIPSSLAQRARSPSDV

T1 sequence (P08588 whole entry): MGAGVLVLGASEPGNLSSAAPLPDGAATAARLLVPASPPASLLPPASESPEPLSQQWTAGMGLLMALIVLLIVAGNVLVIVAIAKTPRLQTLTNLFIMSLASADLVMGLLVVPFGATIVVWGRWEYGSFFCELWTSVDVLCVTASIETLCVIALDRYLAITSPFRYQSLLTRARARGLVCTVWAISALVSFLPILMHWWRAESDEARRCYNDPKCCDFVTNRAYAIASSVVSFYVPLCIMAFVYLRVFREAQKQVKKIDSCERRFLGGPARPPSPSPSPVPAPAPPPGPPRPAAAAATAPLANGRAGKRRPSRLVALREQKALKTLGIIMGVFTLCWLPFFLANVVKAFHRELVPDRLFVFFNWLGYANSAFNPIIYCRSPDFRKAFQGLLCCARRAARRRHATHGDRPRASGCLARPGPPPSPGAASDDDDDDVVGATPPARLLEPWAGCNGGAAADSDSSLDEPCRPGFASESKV

In the case of `C[C@H](CO)NC(=O)c1cccc(/C=C\CCCC(=O)N(C)C)c1` [VSN16R], the Activity [1] is reported as “Negligible Activity”, the Activity [2] is reported as “Negligible Activity” and the Activity [3] is reported as “Negligible Activity”. The IC50 [4] was over 10000 nM, the “Effect of feeding on pharmacokinetics” value ([5]; 200 mg p.o., fed within 0.5 h of dosing) was “delayed the time of the Cmax (Tmax) and reduced Cmax” and the concentration at 1 week ([5]; male, human, plasma, oral, twice daily dosing of VSN16R, read-out: Steady‐state plasma levels) was over 100 nM. For the same compound, the bioavailability ([5]; male, human, plasma, po, 25 mg p.o.) was 100%, the Terminal elimination ([5]; over the dose range studied, 25–800 mg) was 3.4 to 4.9 h and the Activity [6] was “Negligible Activity”. For the same compound, the Activity ([7]; 10µM VSN16R) was “Negligible Activity”, the “Binding to GPR55” value ([7]; Multispan C1113, H113, HEK293T.GPR55 and mouse DBT.Gpr55 cell lines) was “does not directly bind” and the Activity [8] was “Negligible Activity”. For the same compound, the “Single BKCa channel activity” value [9] was “stimulated single BKCa channel activity”, the EC50 [10] was 110 nM and the “Relaxation in the presence of extracellular KCl” value ([11]; 60 mM KCl) was “produced no relaxation”. The Vasorelaxation ([11]; endothelium intact vs denuded) was “significant vasorelaxation in an endothelium‐dependent manner” and the Activity [12] was “Negligible Activity”.
